Data published in the SangsterLogP compilation.
Non-standard residues stand in square brackets, D forms with d. Residues, ends and D or L forms follow the SMILES beside them. ξ: configuration not given here. *: point of attachment. ξF = NC(Cc1ccccc1)C(=O)O; Cbz = O=C(OCc1ccccc1)*

Key:
[1] = method code SF, from Hansch, C. & Leo, A. (1987). Log P database [Dataset]. Pomona College Medicinal Chemistry Project.

| Compound | logP | logP [1] | other results |
| --- | --- | --- | --- |
| CCC(C)NC(=O)C(C)=Cc1ccccc1 (configuration not stated) | 3.08 |  |  |
| CC12CC3(C)CC(C)(C1)CC(NC(=O)N(CCCl)N=O)(C2)C3 | 5.75 |  |  |
| CCC(C)NC(=O)C(=Cc1ccccc1)NC(=O)c1ccccc1 (configuration not stated) | 2.61 |  |  |
| CCCC(=CC(=O)NC(C)CC)c1ccc(Cl)cc1 (configuration not stated) | 4.34 |  |  |
| [O-][n+]1cc(-c2ccccc2)ncc1-c1ccccc1 | 3.27 |  |  |
| O=NN(CCCl)C(=O)Nc1ccccc1 | 2.49 |  |  |
| CCC(C)NC(=O)C=C(c1ccccc1)c1ccc(Cl)cc1 (configuration not stated) | 4.11 |  |  |
| COc1ccnc(C#N)n1 | 0.86 |  |  |
| CC(=O)Nc1ccc2nccnc2c1 | 1 |  |  |
| CCCCOc1ccc(O)cc1 | 2.9 |  |  |
| FC(F)(F)CN(CC(F)(F)F)c1ccccc1 | 3.69 |  |  |
| COc1cccc(NC(=O)N(CCCl)N=O)c1 | 2.66 |  |  |
| CCSC(=O)Oc1cccc2cccnc12 | 2.74 |  |  |
| C[C@]12CCC(=O)C=C1CC[C@@H]1[C@@H]2C(=O)C[C@@]2(C)[C@H]1CC[C@]2(O)C(=O)CO | 1.64 |  |  |
| O=NN(CCCl)C(=O)NC1CCCCCCCCCCC1 | 5.64 |  |  |
| CCC(C)c1cccc(C(C)C)c1O (configuration not stated) | 3.85 |  |  |
| CCC(C)NC(=O)C(C)=Cc1ccc(Cl)cc1 (configuration not stated) | 3.63 |  |  |
| O=NN(CCCl)C(=O)Nc1ccc(Cl)cc1 | 3.16 |  |  |
| CCOC(=O)c1n[nH]c2ccc(CC)cc2c1=O | 2.01 |  |  |
| C[C@]1(O)CC[C@H]2[C@@H]3CCC4=CC(=O)CC[C@]4(C)[C@@]3(F)[C@@H](O)C[C@@]21C | 2.38 |  |  |
| CCC(C)NC(=O)C=C(N)c1ccc(Cl)cc1 (configuration not stated) | 2.85 |  |  |
| CC(=O)Nc1cnc2ccccc2n1 | 1.53 |  |  |
| CC(=O)Nc1cccc2nccnc12 | 1.06 |  |  |
| CCC(C)NC(=O)C(=Cc1ccccc1)SC (configuration not stated) | 3.53 |  |  |

| Compound | logP | logP [1] | other results |
| --- | --- | --- | --- |
| FC(F)(F)CN(CC(F)(F)F)c1ccc(Br)cc1 | 4.7 |  |  |
| COc1cc(S(C)=O)ccc1-c1cn2cccnc2n1 (configuration not stated) | 0.64 |  |  |
| CCC(C)NC(=O)C(=Cc1ccccc1)NC(C)=O (configuration not stated) | 1.76 |  |  |
| CCC(C)c1cccc(C(C)CC)c1O (configuration not stated) | 4.38 |  |  |
| CC1=Nc2ccc(F)cc2S(=O)(=O)N1 |  | 0.62 |  |
| NC(=O)c1cccnc1N |  |  | logD ([1]; pH 7.0): 0.88 |
| CC(=O)Nc1ccccc1[N+](=O)[O-] |  | 1.05 |  |
| CCC(C)c1cnc(CC(C)C)c(=O)n1O (configuration not stated) |  | 1.81 |  |
| CCCCNP(=O)(OC)Oc1cc(Cl)c(Cl)cc1Cl (configuration not stated) |  | 4.18 |  |
| CN(C)/N=C/CCc1ccccc1 |  |  | logD ([1]; pH 7.4): 2.05 |
| NC1=Nc2cc(Cl)ccc2S(=O)(=O)N1 |  | 0.91 |  |
| NNc1ncnc2c([C@@H]3O[C@H](CO)[C@@H](O)[C@H]3O)n[nH]c12 |  | -1.42 |  |
| C=CC=O |  | -0.01 |  |
| CCOC(=O)C(=Cc1ccc([N+](=O)[O-])cc1)C(=O)OCC |  | 3.03 |  |
| CC(=O)OCOC(=O)C1=C(CSC2(C)N=NN=N2)CSC2C(NC(=O)C(O)c3ccccc3)C(=O)N12 (configuration not stated) |  |  | logD ([1]; pH 6.8): 0.75 |
| CCc1ccco1 |  | 2.4 |  |
| CCN(CC)c1c(C)n(-c2ccccc2)c(=O)n(C)c1=O |  |  | logD ([1]; pH 7.4): 2.19 |
| CC(C)[C@H](NC(=O)C(Cc1ccccc1)NC(=O)OCc1ccccc1)C(=O)O (some centres not stated) (Cbz-[ξF]-Val-OH) |  | 2.88 |  |
| CNP(=O)(OC)Oc1cc(Cl)c(Cl)cc1Cl (configuration not stated) |  | 3.06 |  |
| CC(=O)NNC(=O)c1ccccn1 |  | -0.59 |  |
| NC(=O)COc1ccccc1 |  | 0.76 |  |
| O=CNc1nccs1 |  | 0.54 |  |
| C[C@@H]1C[C@H]2[C@@H]3CCC4=CC(=O)C=C[C@]4(C)[C@@]3(F)[C@@H](O)C[C@]2(C)[C@@]1(O)C(=O)CO |  | 1.99 |  |
